Results from PubChem BioAssay (NCI).
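1) Cells in 96-well plates. 2) Compound, 48 h, 5 concentrations. 3) Linear interpolation between surrounding doses. 4) Unreached endpoint = highest concentration. At the TGI there is no net growth.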

Legend:
Test in all cases: NCI anticancer screen, dose series, 48 h
A498 renal = test system: A498 renal
MDA-MB-231 breast = test system: MDA-MB-231 breast
CCRF-CEM leukemia = test system: CCRF-CEM leukemia
MCF7 breast = test system: MCF7 breast
SN12C renal = test system: SN12C renal
HCT-15 colon = test system: HCT-15 colon
KM12 colon = test system: KM12 colon
SF-295 CNS = test system: SF-295 CNS
HCT-116 colon = test system: HCT-116 colon
UO-31 renal = test system: UO-31 renal

| SMILES | TGI (A498 renal) [µM] | TGI (MDA-MB-231 breast) [µM] | TGI (CCRF-CEM leukemia) [µM] | TGI (MCF7 breast) [µM] | TGI (SN12C renal) [µM] | TGI (HCT-15 colon) [µM] | TGI (KM12 colon) [µM] | TGI (SF-295 CNS) [µM] | TGI (HCT-116 colon) [µM] | TGI (UO-31 renal) [µM] |
| --- | --- | --- | --- | --- | --- | --- | --- | --- | --- | --- |
| COc1c(Cl)ccc(Cl)c1C(=O)NNC(=O)c1c(Cl)c(Cl)c(Cl)c(Cl)c1-c1nc2ccc(C(=O)c3ccccc3)cc2[nH]1 | > 100 | > 100 | > 100 | > 100 | > 100 | > 100 | > 100 | > 100 | > 100 | > 100 |
| CC1=C2C(=O)O[C@@H](c3ccoc3)[C@]2(C)CCC1=O | > 100 | > 100 | > 100 | > 100 | > 100 | > 100 | > 100 | > 100 | > 100 | > 100 |
| C[C@H](CCC1=NCCN1)[C@H]1CC[C@H]2[C@@H]3[C@H](O)C[C@@H]4C[C@H](O)CC[C@]4(C)[C@H]3CC[C@]12C | 26.1 | 33.5 | 32.9 | 28.5 | 37 | 30.1 | 27.7 | 28.9 | 26.4 | 27.8 |
| O=C(O)C(Cc1ccc2c(c1)CCC2)(Cc1ccc2c(c1)CCC2)C(=O)O | > 100 | > 100 | > 100 | > 100 | > 100 | > 100 | > 100 | > 100 | > 100 | > 100 |
| CN(C)CCN1C(=O)CC[C@@]2(C)C1=CC[C@@H]1[C@@H]2CC[C@@]2(C)[C@H]1CC[C@]2(C)O | > 100 | > 100 | > 100 | > 100 | > 100 | > 100 | > 100 | > 100 | > 100 | > 100 |
| N#C/C(=C1\N=C(c2ccccc2O)Oc2ccccc21)c1ccc([N+](=O)[O-])cc1 | > 100 | > 100 | > 100 | > 100 | > 100 | > 100 | > 100 | > 100 | > 100 | > 100 |
| O=C(O)c1cccc(S(=O)(=O)NN2C(=O)CSC2c2ccccc2)c1 (stereo not given) | > 100 | > 100 | > 100 | > 100 | > 100 | > 100 | > 100 | > 100 | > 100 | > 100 |
| COc1cc2c(cc1OC)C1Cc3ccccc3CCN1CC2 (stereo not given) | > 100 | > 100 | > 100 | > 100 | > 100 | > 100 | > 100 | > 100 | > 100 | > 100 |
| CC(C)(C)c1cc(C(=O)/C=C/c2ccc(O)c(O)c2O)cc(C(C)(C)C)c1O | 34.4 | 36 | 7.84 | 27.2 | 13.8 | 14.8 | 11.6 | 27.8 | 12.7 | 13.9 |
| CC12CC3CC/C(=N\O)C(C1)C3(N1CCOCC1)C/C2=N/O (stereo not given) | > 100 | > 100 | > 100 | > 100 | > 100 | > 100 | > 100 | > 100 | > 100 | > 100 |
| CC(=O)Nc1ccc(Nc2cc(=O)n(C)c(=O)[nH]2)cc1 | > 100 | > 100 | > 100 | > 100 | > 100 | > 100 | > 100 | > 100 | > 100 | > 100 |
| O/N=c1/ccn(O)c2ccccc12 | 1.75 | 5.4 | 3.34 | 7.49 | 5.7 | 5.21 | 5.25 | 2.9 | 11.3 | 3.93 |
| Cc1cccc(/C=N/NC(=S)NCc2ccccn2)n1 | > 100 | > 100 | > 100 | > 100 | > 100 | > 100 | > 100 | > 100 | > 100 | 60 |
| N#Cc1ncn(-c2ccccc2)c1N | > 100 | > 100 | > 100 | > 100 | > 100 | > 100 | > 100 | > 100 | > 100 | > 100 |
| COc1ncnc2c1cnn2Cc1cn(COCC(O)CO)nn1 (stereo not given) | > 100 | > 100 | > 100 | > 100 | > 100 | > 100 | > 100 | > 100 | > 100 | > 100 |
